One series relates to HEK293T cells. In words: In vitro Luc-mRNA transfection, luciferase luminescence expression in HEK293T cells. The note with it: Table 16; HEK 293T cells, 125 ng/well, n=3. Format: cell-based, human. More on the design: unit not given here. Summed up: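 HEK293T cells were transfected with nucleoside-modified firefly luciferase mRNA at 125 ng/well delivered in the test particles. TransIT and MC3-based LNPs at equal mRNA dose served as comparators. After 24 h (18-20 h in some runs) at 37° C the cells were lysed, and luciferase luminescence was read on a luminometer, in triplicate.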

Another series deals with BALB/c mice. In words: In vivo mRNA delivery in mice with DNPs, whole-body bioluminescence imaging (IVIS).
The next series has as its system lung. In words: In vivo mRNA delivery, IVIS imaging of organs: lung. More on the design: species or system mice; key to Organs with luminescence: lung: strong: Strong meant the luminescence intensity in that organ was relatively high, compared to other organs; weak: Weak meant the luminescence intensity in that organ was relatively low, compared to other organs. The following applies: Table 17; mice, IVIS, 4-6 h after injection; intensity relative to other organs.

Series [1] is described as follows: Stability of DNPs by DLS after storage at 5° C. The following applies: after 21 days at 5° C. It is filed as physicochemical. Further details: key: Excellent: the original sizes and distribution types remained almost the same after storage; Good: the original sizes and distribution types changed slightly (size difference was less than 100 nm) or the original size remained almost the same but the DLS curve showed more size distributions after storage. In short, it runs like this: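 DNPs in acetate buffer sized by DLS after storage at 5 °C. Stability ranked Excellent, Good or Not stable according to retention, shrinkage or growth of original size and narrowing or broadening of size distribution.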

Where [2] appears, read: Table 20, nonsymmetric IAJDs and MC3-Luc-mRNA.

With `CCCCCCCCCCCCCCCCCCOc1cc(COC(=O)CCCN2CCN(C)CC2)cc(OCCCCCCCCCCCCC)c1` [IAJD 177, 3-(Octadecyloxy)-5-(tridecyloxy)benzyl 4-(4-methylpiperazin-1-yl)butanoate], in the series on HEK293T cells, the Luminescence is recorded as 4,343. Further, the “In vivo activity (total flux, p/s)” value with BALB/c mice (Table 19, nonsymmetric IAJDs) is on record as 9.18 × 10^7 p/s; with BALB/c mice (setting [2]), 9.18 × 10^7 p/s. Further, in the series with lung, the “Organs with luminescence: lung” value is listed as “Lung (weak),”. Moreover, the Ranking of stability result in series [1] is “Excellent”.
On to `CCCCCCCCCCCCCCCCCCOc1cc(COC(=O)CCCN2CCN(CCO)CC2)cc(OCCCCCCCCCCCCC)c1` [IAJD 178, 3-(Octadecyloxy)-5-(tridecyloxy)benzyl 4-(4-(2-hydroxyethyl)piperazin-1-yl)butanoate], for which the Luminescence in the series with HEK293T cells is 235,419. The “In vivo activity (total flux, p/s)” value with BALB/c mice (Table 19, nonsymmetric IAJDs) is reported as 4.05 × 10^8 p/s; with BALB/c mice (setting [2]), 4.05 × 10^8 p/s. In addition, the total flux luminescence in the series on BALB/c mice (mice, in vivo Luc-mRNA transfection) is reported as 4.05×10^8 p/s. Besides, the “in vivo activity, times higher than symmetric IAJD with the same headgroup” value with BALB/c mice (nonsymmetric vs symmetric alkyl chains (178 vs 99 (18/18))) came to 90.2 times. For the same molecule, the “in vivo activity, times lower than of MC3” value in the series with BALB/c mice (total flux luminescence vs MC3) worked out at 4.2 times. Besides, in the series on lung, the “Organs with luminescence: lung” value is recorded as “Lung (weak),”. Moreover, the Ranking of stability entry in series [1] is listed as “Excellent”.

The values above are taken from US20240252677A1, “ONE-COMPONENT DELIVERY SYSTEM FOR NUCLEIC ACIDS” (The Trustees of the University of Pennsylvania, priority 2021, published 2024).
